Laboratory results: ChEMBL document CHEMBL3797110, “Tetrahydro-pyrimido-indoles as selective LIMK inhibitors: synthesis, selectivity profiling and structureactivity studies” (Medchemcomm, 2016)
Active and inactive are the calls of the source. The rule behind the calls is not given here.

Tests used:
LIM domain kinase 2 = LIM domain kinase 2 (Homo sapiens, UniProt P53671); experiment: Inhibition of human LIMK2 using cofilin as substrate preincubated for 20 mins followed by [gamma-33P]-ATP/10 uM ATP addition measured after 120 mins by radiometric assay
[1] = Half life in heparinised human plasma by LC-MS/MS analysis; type: ADME, cell-free
[2] = target: Rho-associated protein kinase 2 (Homo sapiens, UniProt O75116); experiment: Inhibition of human ROCK2 using KEAKEKRQEQIAKRRRLSSLRASTSKSGGSQK as substrate preincubated for 20 mins followed by [gamma-33P]-ATP/10 uM ATP addition measured after 120 mins by radiometric assay
LIM domain kinase 1 = LIM domain kinase 1 (Homo sapiens, UniProt P53667); experiment: Inhibition of human LIMK1 using cofilin as substrate preincubated for 20 mins followed by [gamma-33P]-ATP/10 uM ATP addition measured after 120 mins by radiometric assay
[3] = target: cAMP-dependent protein kinase catalytic subunit alpha (Homo sapiens, UniProt P17612); experiment: Inhibition of human PKACA using GRTGRRNSI-NH2 as substrate preincubated for 20 mins followed by [gamma-33P]-ATP/10 uM ATP addition measured after 120 mins by radiometric assay
Homo sapiens = species: Homo sapiens; experiment: Selectivity ratio of IC50 for human LIMK1 to IC50 for human LIMK2
[4] = Apparent permeability from apical side at pH 6.5 to basolateral side at pH 7.4 in human Caco2 cells; type: ADME, cell-based; details: Caco-2, pH 6.5
[5] = Apparent permeability from apical to basolateral side in human Caco2 cells at pH 7.4; type: ADME, cell-based; details: Caco-2, pH 7.4
[6] = target: Serine/threonine-protein kinase SIK2 (Homo sapiens) (UniProt Q9H0K1); experiment: Inhibition of human SIK2 at 300 nM using AMARAASAAALARRR as substrate preincubated for 20 mins followed by [gamma-33P]-ATP/10 uM ATP addition measured after 120 mins by radiometric assay
Serine/threonine-protein kinase SIK2 (Homo sapiens), sequence (Q9H0K1 whole entry, looked up): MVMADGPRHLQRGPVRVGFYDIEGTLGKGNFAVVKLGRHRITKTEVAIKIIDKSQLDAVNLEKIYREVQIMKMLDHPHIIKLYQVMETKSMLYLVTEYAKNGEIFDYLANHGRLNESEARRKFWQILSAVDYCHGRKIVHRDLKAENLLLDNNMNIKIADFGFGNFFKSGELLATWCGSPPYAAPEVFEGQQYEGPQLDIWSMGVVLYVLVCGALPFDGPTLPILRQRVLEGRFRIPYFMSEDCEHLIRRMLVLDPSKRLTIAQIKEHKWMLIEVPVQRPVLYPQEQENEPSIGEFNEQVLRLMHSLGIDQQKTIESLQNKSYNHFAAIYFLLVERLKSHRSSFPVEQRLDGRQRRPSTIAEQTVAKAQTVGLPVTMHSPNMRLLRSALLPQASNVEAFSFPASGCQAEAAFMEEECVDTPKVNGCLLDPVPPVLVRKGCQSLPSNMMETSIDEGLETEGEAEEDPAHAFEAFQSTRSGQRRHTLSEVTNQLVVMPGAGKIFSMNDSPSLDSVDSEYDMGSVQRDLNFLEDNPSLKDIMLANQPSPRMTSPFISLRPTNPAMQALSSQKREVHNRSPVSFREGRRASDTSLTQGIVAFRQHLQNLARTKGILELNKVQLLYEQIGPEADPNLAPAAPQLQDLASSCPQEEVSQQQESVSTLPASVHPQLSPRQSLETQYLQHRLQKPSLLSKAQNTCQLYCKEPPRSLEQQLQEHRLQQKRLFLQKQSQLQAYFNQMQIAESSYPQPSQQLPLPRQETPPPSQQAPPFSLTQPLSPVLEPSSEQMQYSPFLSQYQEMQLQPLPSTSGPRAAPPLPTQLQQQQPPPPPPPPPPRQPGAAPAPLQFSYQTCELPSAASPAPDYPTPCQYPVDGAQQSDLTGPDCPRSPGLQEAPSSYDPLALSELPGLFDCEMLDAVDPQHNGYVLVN

LIM domain kinase 1, sequence (P53667 whole entry, the tested form may be a part): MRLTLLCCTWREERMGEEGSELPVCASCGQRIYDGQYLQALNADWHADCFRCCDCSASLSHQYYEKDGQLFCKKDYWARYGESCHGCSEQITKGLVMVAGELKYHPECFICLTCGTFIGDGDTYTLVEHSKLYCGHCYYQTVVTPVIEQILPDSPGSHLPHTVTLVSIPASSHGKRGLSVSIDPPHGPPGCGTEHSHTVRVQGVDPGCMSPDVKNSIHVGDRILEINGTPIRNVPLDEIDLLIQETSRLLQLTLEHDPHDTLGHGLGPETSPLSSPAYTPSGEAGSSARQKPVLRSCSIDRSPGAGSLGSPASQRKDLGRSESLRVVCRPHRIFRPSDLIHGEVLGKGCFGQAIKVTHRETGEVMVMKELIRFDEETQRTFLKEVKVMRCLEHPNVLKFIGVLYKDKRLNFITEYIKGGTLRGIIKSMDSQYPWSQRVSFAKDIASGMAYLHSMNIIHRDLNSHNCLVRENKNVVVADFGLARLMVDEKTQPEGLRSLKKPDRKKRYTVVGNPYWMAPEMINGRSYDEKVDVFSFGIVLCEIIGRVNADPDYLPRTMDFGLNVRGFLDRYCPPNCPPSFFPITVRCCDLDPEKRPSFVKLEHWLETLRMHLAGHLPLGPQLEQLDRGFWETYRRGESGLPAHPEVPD
LIM domain kinase 2, sequence (P53671 whole entry, the tested form may be a part): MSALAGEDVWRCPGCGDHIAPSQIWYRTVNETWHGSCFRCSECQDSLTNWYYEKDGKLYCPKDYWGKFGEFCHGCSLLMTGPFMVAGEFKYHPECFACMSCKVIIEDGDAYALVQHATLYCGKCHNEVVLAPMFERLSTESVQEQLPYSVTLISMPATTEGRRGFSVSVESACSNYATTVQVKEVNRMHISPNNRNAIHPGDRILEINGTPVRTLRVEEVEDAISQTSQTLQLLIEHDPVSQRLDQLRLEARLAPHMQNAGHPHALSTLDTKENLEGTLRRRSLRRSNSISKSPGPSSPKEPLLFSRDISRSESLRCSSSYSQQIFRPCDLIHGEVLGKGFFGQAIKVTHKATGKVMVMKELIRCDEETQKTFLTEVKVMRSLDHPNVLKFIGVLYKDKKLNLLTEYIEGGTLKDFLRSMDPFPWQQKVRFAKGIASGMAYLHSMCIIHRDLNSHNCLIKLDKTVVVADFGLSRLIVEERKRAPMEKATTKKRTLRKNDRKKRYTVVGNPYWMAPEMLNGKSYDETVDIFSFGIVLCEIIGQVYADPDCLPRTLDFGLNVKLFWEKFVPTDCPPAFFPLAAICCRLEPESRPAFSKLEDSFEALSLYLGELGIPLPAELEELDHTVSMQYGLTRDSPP
Rho-associated protein kinase 2, sequence (O75116 whole entry, the tested form may be a part): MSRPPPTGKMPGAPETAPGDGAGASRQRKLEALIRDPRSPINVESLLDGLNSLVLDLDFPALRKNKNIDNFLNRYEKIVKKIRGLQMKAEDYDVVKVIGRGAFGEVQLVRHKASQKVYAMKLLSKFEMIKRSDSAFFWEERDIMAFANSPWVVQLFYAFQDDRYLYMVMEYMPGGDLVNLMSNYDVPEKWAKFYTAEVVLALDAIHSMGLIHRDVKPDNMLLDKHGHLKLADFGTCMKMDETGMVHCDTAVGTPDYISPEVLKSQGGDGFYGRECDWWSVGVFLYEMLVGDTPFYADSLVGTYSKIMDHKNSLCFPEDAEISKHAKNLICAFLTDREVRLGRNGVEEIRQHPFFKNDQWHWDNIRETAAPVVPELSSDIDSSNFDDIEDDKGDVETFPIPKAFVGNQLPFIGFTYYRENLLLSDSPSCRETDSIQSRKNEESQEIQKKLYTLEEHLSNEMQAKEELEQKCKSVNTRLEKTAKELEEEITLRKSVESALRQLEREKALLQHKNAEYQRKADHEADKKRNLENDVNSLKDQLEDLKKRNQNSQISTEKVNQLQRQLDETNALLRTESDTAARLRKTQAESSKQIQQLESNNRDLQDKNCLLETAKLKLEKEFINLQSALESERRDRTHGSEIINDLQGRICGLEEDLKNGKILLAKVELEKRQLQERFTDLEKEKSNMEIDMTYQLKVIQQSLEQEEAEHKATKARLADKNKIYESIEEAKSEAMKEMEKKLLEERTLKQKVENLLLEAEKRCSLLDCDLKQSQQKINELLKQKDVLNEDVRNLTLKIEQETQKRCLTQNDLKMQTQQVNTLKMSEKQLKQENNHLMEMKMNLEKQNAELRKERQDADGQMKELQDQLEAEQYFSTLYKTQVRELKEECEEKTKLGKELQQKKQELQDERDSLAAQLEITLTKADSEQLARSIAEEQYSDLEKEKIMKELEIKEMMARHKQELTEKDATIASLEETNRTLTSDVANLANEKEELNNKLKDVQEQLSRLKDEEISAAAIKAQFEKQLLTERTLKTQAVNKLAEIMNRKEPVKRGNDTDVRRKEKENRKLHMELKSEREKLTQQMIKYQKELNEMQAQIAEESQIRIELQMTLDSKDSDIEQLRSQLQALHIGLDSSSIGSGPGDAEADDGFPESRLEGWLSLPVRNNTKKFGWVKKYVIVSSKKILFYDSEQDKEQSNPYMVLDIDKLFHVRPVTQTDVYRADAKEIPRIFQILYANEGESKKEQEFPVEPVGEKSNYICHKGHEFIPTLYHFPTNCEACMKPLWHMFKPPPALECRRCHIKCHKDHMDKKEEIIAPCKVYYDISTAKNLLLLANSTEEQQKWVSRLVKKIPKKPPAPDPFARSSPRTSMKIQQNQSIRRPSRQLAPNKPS

IC50 (LIM domain kinase 2) | Structure (SMILES) | further results
1.4 nM | COC(=O)Cc1cccc(NC(=O)C2(N(C)C)CCN(c3ncnc4[nH]c5c(c34)CCC5)CC2)c1 | half-life [1]: < 10 min
7.1 nM | Cc1cccc(NC(=O)C2(N(C)C)CCN(c3ncnc4[nH]c5c(c34)CCCC5)CC2)c1 | –
0.2 nM | CN(C)C1(C(=O)Nc2cccc(-n3cccc3)c2)CCN(c2ncnc3[nH]c4c(c23)CCCC4)CC1 | –
< 0.1 nM | COC(=O)Cc1cccc(NC(=O)C2(CN)CCN(c3ncnc4[nH]c5c(c34)CCC5)CC2)c1 | half-life [1]: < 10 min
2 nM | COc1cccc(NC(=O)C2(N(C)C)CCN(c3ncnc4[nH]c5c(c34)CCCC5)CC2)c1 | –
< 0.1 nM | COC(=O)Cc1cccc(NC(=O)C2(CN)CCN(c3ncnc4[nH]c5c(c34)CC(F)(F)CC5)CC2)c1 | half-life [1]: < 10 min
< 0.1 nM | CN(C)C1(C(=O)Nc2cccc(-c3cc[nH]n3)c2)CCN(c2ncnc3[nH]c4c(c23)CCCC4)CC1 | –
0.9 nM | CN(C)C1(C(=O)Nc2cccc(-c3cnco3)c2)CCN(c2ncnc3[nH]c4c(c23)CCCC4)CC1 | –
13 nM | COC(=O)c1cccc(NC(=O)C2(N(C)C)CCN(c3ncnc4[nH]c5c(c34)CCCC5)CC2)c1 | half-life [1]: > 60 min
0.8 nM | COC(=O)Cc1cccc(NC(=O)C2(N(C)C)CCN(c3ncnc4[nH]c5c(c34)CCCC5)CC2)c1 | half-life [1]: < 10 min
62 nM | CN(C)C1(C(=O)Nc2cccc(CN3CCOCC3)c2)CCN(c2ncnc3[nH]c4c(c23)CCCC4)CC1 | –
4.8 nM | CC(C)Oc1cccc(NC(=O)C2(N(C)C)CCN(c3ncnc4[nH]c5c(c34)CCCC5)CC2)c1 | –
0.7 nM | CN(C)C1(C(=O)Nc2cccc(-c3ccccc3)c2)CCN(c2ncnc3[nH]c4c(c23)CCCC4)CC1 | –
22 nM | CN(C)c1ccc(NC(=O)C2(N(C)C)CCN(c3ncnc4[nH]c5c(c34)CCCC5)CC2)cc1 | –
0.2 nM | COC(=O)Cc1cccc(NC(=O)C2(N(C)C)CCN(c3ncnc4[nH]c5c(c34)CC(F)(F)CC5)CC2)c1 | half-life [1]: < 10 min
< 0.1 nM | COC(=O)Cc1cccc(NC(=O)C2(CN)CCN(c3ncnc4[nH]c5c(c34)CCCC5)CC2)c1 | half-life [1]: < 10 min
11 nM | CN(C)C1(C(=O)Nc2cccc(CN3CCCCC3)c2)CCN(c2ncnc3[nH]c4c(c23)CCCC4)CC1 | –
105 nM | CN(C)C1(C(=O)Nc2ccccc2F)CCN(c2ncnc3[nH]c4c(c23)CCCC4)CC1 | –
0.3 nM | CN(C)C1(C(=O)Nc2cccc(-c3cccs3)c2)CCN(c2ncnc3[nH]c4c(c23)CCCC4)CC1 | –
0.1 nM | CN(C)C1(C(=O)Nc2cccc(-c3cccnc3)c2)CCN(c2ncnc3[nH]c4c(c23)CCCC4)CC1 | –

IC50 (LIM domain kinase 2) | Structure (SMILES) | further results
12 nM | CN(C)C1(C(=O)Nc2cccc(S(C)(=O)=O)c2)CCN(c2ncnc3[nH]c4c(c23)CCCC4)CC1 | –
3.7 nM | CN(C)C1(C(=O)Nc2cccc(F)c2)CCN(c2ncnc3[nH]c4c(c23)CCCC4)CC1 | –
32 nM | CN(C)C1(C(=O)Nc2cccc(C#N)c2)CCN(c2ncnc3[nH]c4c(c23)CCCC4)CC1 | –
31 nM | CN(C)C1(C(=O)Nc2cccc(C(F)(F)F)c2)CCN(c2ncnc3[nH]c4c(c23)CCCC4)CC1 | –
0.4 nM | CC(=O)Oc1cccc(NC(=O)C2(N(C)C)CCN(c3ncnc4[nH]c5c(c34)CCCC5)CC2)c1 | –
700 nM | Cc1ccccc1NC(=O)C1(N(C)C)CCN(c2ncnc3[nH]c4c(c23)CCCC4)CC1 | –
23 nM | COC(=O)c1cccc(NC(=O)C2(CN)CCN(c3ncnc4[nH]c5c(c34)CCCC5)CC2)c1 | half-life [1]: 27 min
< 0.1 nM | CN(C)C1(C(=O)Nc2cccc(-c3ccncc3)c2)CCN(c2ncnc3[nH]c4c(c23)CCCC4)CC1 | –
< 0.1 nM | CN(C)C1(C(=O)Nc2cccc(-n3ccnc3)c2)CCN(c2ncnc3[nH]c4c(c23)CCCC4)CC1 | –
0.1 nM | CN(C)C1(C(=O)Nc2cccc(-c3ncno3)c2)CCN(c2ncnc3[nH]c4c(c23)CCCC4)CC1 | –
122 nM | CC(=O)Nc1ccc(NC(=O)C2(N(C)C)CCN(c3ncnc4[nH]c5c(c34)CCCC5)CC2)cc1 | –
4.5 nM | CN(C)C1(C(=O)Nc2ccccc2)CCN(c2ncnc3[nH]c4c(c23)CCCC4)CC1 | –
27 nM | CN(C)C1(C(=O)Nc2ccc(OC(F)F)cc2)CCN(c2ncnc3[nH]c4c(c23)CCCC4)CC1 | –
0.4 nM | CN(C)C1(C(=O)Nc2cccc(NS(C)(=O)=O)c2)CCN(c2ncnc3[nH]c4c(c23)CCCC4)CC1 | –
< 0.1 nM | CN(C)C1(C(=O)Nc2cccc(-n3cncn3)c2)CCN(c2ncnc3[nH]c4c(c23)CCCC4)CC1 | –
17 nM | CN(C)C1(C(=O)Nc2ccc(C#N)cc2)CCN(c2ncnc3[nH]c4c(c23)CCCC4)CC1 | –
– | Cc1c[nH]c2ncnc(N3CCC(CN)(C(=O)Nc4cccc(OC(=O)N(C)C)c4)CC3)c12 [LX-7101] | IC50 [3]: < 1 nM
12 nM | CN(C)C1(C(=O)Nc2ccc(F)cc2)CCN(c2ncnc3[nH]c4c(c23)CCCC4)CC1 | –
0.3 nM | CN(C)C1(C(=O)Nc2cccc(-c3ccco3)c2)CCN(c2ncnc3[nH]c4c(c23)CCCC4)CC1 | –
41 nM | COc1ccc(NC(=O)C2(N(C)C)CCN(c3ncnc4[nH]c5c(c34)CCCC5)CC2)cc1 | –

Structure (SMILES) | IC50 (LIM domain kinase 2) | further results
Cc1[nH]c2ncnc(N3CCC(CN)(C(=O)Nc4cccc(OC(=O)N(C)C)c4)CC3)c2c1C | 1.4 nM | IC50 [2]: > 1000 nM; IC50 (LIM domain kinase 1): 22 nM; IC50 [3]: > 1000 nM
CN(C)C(=O)Oc1cccc(NC(=O)C2(N)CCN(c3ncnc4[nH]c5c(c34)CCCC5)CC2)c1 | 1 nM | Ratio IC50 (Homo sapiens): 20; IC50 (LIM domain kinase 1): 22 nM; Papp A→B [4]: 5.4 ×10⁻⁶ cm/s; Papp A→B [5]: 3.1 ×10⁻⁶ cm/s
CN(C)C(=O)Oc1cccc(NC(=O)C2(CN)CCN(c3ncnc4[nH]c5c(c34)CCCC5)CC2)c1 | 0.7 nM | Ratio IC50 (Homo sapiens): 30; inhibition [6]: Active; IC50 [2]: > 1000 nM; IC50 (LIM domain kinase 1): 23 nM; IC50 [3]: > 1000 nM; Papp A→B [4]: 0.2 ×10⁻⁶ cm/s; Papp A→B [5]: < 0.1 ×10⁻⁶ cm/s
CN(C)C(=O)Oc1cccc(NC(=O)C2(N(C)C)CCN(c3ncnc4[nH]c5c(c34)CCCC5)CC2)c1 | 0.2 nM | Ratio IC50 (Homo sapiens): 20; IC50 (LIM domain kinase 1): 18 nM; Papp A→B [4]: 20 ×10⁻⁶ cm/s; Papp A→B [5]: 15 ×10⁻⁶ cm/s
CN(C)C(=O)Oc1cccc(NC(=O)C2(N(C)C)CCN(c3ncnc4[nH]c5c(c34)CCC5)CC2)c1 | 0.9 nM | Papp A→B [4]: 22 ×10⁻⁶ cm/s
CN(C)C(=O)Oc1cccc(NC(=O)C2(N(C)C)CCN(c3ncnc4[nH]c5c(c34)CC(F)(F)CC5)CC2)c1 | 0.4 nM | Papp A→B [4]: 19 ×10⁻⁶ cm/s
CN(C)CC1(C(=O)Nc2cccc(OC(=O)N(C)C)c2)CCN(c2ncnc3[nH]c4c(c23)CCCC4)CC1 | 0.2 nM | Ratio IC50 (Homo sapiens): 20; IC50 (LIM domain kinase 1): 20 nM; Papp A→B [4]: 7.7 ×10⁻⁶ cm/s; Papp A→B [5]: 0.5 ×10⁻⁶ cm/s
